Results on ten molecules are retold here after patent US5506215A, “1-(3'-fluoro-2',3'-dideoxy-β-D-ribofuranosyl)-5-substituted pyrimidine nucleosides” (Medivir AB, priority 1987, dated 1996).

Where “and” joins values, the source holds several entries; their conditions need not be identical. Equal entries are not always repeated. Where two headings read alike, the source gives them in different places.

Data set [1] concerns HIV (HTLV-IIIB). Kind of data set: Test I, effect of compounds on HIV in H9 cells (HIV antigen containing cells). Type of data set: cell-based. As to conditions: read-out: Concentration for 50% inhibition (IC50) of human immuno deficiency virus multiplication in cell culture. Here is the method:
Materials and methods: HIV infection of H9 cells
H9 cells, 10^5 cells per well on a 24 well plate, suspended in 2 ml RPMI-medium containing 10% fetal calf serum, 100 μg/ml penicillin, 10 μg/ml streptomycin sulfate and 2μg/ml polybrene are exposed to HIV (HTLV-IIIB) and different concentrations of the test compounds. The plates are incubated at 37° C. in 5% CO2 for 6-7 days. The contents in each well is then homogenized with a pipette and transferred to a centrifuge tube. After centrifugation for 10 min at 1500 rpm the supernatant is removed and the cell pellet is analyzed by fixing in methanol on glass plates. Human HIV positive serum diluted 1:80 or 1:160 is added and incubated for 30 min at 37° C. The plate is then washed with phosphate-buffered saline (PBS) containing Ca^2+ and Mg^2+. Sheep antihuman conjugate (FITC) is added and after a new incubation the plate is again washed with PBS. Contrast staining is done with Evans blue and after drying the frequency of HIV antigen containing cells is determined in a microscope.

Data set [2] can be described thus: Test II, cellular toxicity, F5000 cells. As to conditions: human, read-out: % inhibition of cell multiplication. Type of data set: cell-based. The protocol: (§1) F5000 cells, which are human embryo cells, 1×10^5 cells per plate, are incubated in Eagle's minimal essential medium, supplemented with Earle's salts, non-essential amino acids, 10% fetal calf serum, 10 mM hopes, 70 mg/l penicillin and 100 mg/l streptomycin, in absence or presence of test compounds. The number of cells per plate is determined after 48 h. Cells incubated in the absence of test compounds underwent one cell division cycle.

For data set [3], the system named is HIV. As to the kind of experiment: Inhibition of HIV multiplication in cell culture, H9 cells (Koshida et al. method). The settings on record: for inhibition at 1 µg/mL: Human immunodeficiency virus 1, H9, 1 μg/ml; for inhibition at 10 µg/mL: Human immunodeficiency virus 1, H9, 10 μg/ml; for inhibition at 0.1 µg/mL: Human immunodeficiency virus 1, H9, 0.1 μg/ml. Type of data set: cell-based. The text has this: The activity against human immunodeficiency virus (HIV) has been tested for the compounds listed and the resulting activities are shown in the Table below.
The data in the Table were gathered and tests performed as described by Koshida et el., "Inhibition of Human Immunodeficiency Virus in vitro by Combination of 3'-Azido-3'-Deoxythymidine and Foscarnet" in Antimicrob Agents and Chemotherapy, Vol 33 (1989) p. 778-780 (on H9 cells for compounds X-XII) and by De Clercq et el, Nucleosides and Nucleotides, Vol 8 (1989) p. 659-671 (on MT4 cells, literature data for compounds XIV-XVI).

Data set [4] has as its system HIV. As to conditions: MT4 cells, literature data, cited from earlier work.
A short description of data set [5]: Test II, cellular toxicity, H9 cells. Type of data set: cell-based. The settings on record: human, read-out: % inhibition of cell multiplication. The protocol:
H9 cells, 2×10^7 cells per plate, are incubated in […] medium containing 10% fetal calf serum, 70 mg/l penicillin, 100 mg/l streptomycin and 10 mM hepes, in absence or presence of test compounds. The number of cells per plate is determined after 48 h. Cells incubated in the absence of test compounds then underwent two cell division cycles.
as §1

Where [6] appears, read: Human immunodeficiency virus 1, 6-7 days.

For orientation: inhibition means the relative decrease from the control value, in per cent. In the case of `O=c1ccn([C@H]2C[C@H](F)[C@@H](CO)O2)c(=O)[nH]1` [VSA 417, 1-(3'-F-2',3'-dideoxy-β-D-ribofuranosyl)-uracil], the IC50 in data set [1] (setting [6]) turned out to be 500 nM. Further, the inhibition at 48 h, 100 µM in data set [2] turned out to be 10%.
Turning to `C#C[C@H]1C[C@H](n2cc(C)c(=O)[nH]c2=O)O[C@@H]1CO` [Example XII, 1-[2,3-Dideoxy-3-C-ethynyl-β-D-erythro-pentofuranosyl]thymine], in data set [3], the inhibition at 1 µg/mL turned out to be 18% and the inhibition at 10 µg/mL amounted to 54%.
Consider `O=c1[nH]c(=O)n([C@H]2C[C@H](F)[C@@H](CO)O2)cc1I` [XV, 5-iodo-1-(3'-fluoro-2',3'-dideoxy-β-D-ribofuranosyl)uracil], for which the “% Inhibition of HIV multiplication” value in data set [4] (0.1 μg/ml) is on record as 50%.
For the molecule `CC(=O)OC[C@H]1O[C@@H](n2cc(C)c(=O)[nH]c2=O)C[C@@H]1F` [VSB 423, 1-(5'-acetyl-3'-fluoro-2',3'-dideoxy-β-D-ribofuranosyl)-5-methyluracil], the IC50 in data set [1] (6-7 days) was below 10 nM.
For the molecule `CO[C@H]1[C@H](N=[N+]=[N-])[C@@H](CO)O[C@H]1n1cc(C)c(=O)[nH]c1=O` [Example XI, 1-(3'-azido-2'-methoxy-2',3'-dideoxy-β-D-arabinofuranosyl)thymine], the “% Inhibition of HIV multiplication” value in data set [3] (0.1 μg/ml) is given as 32%. Also, the “% Inhibition of HIV multiplication” value in data set [3] (1 μg/ml) came to 38%. Besides, in data set [3], the inhibition at 0.1 µg/mL turned out to be 27% and the inhibition at 1 µg/mL turned out to be 21%.
Regarding `CCc1cn([C@H]2C[C@H](F)[C@@H](CO)O2)c(=O)[nH]c1=O` [VSA 410, 1-(3'-F-2',3'-dideoxy-β-D-ribofuranosyl)-5-ethyl-uracil], the IC50 in data set [1] (setting [6]) is below 1000 nM. Moreover, the inhibition at 48 h, 100 µM in data set [2] and in data set [5] (100 μM) was 25% throughout.
Regarding `CO[C@H]1[C@H](F)[C@@H](CO)O[C@H]1n1cc(C)c(=O)[nH]c1=O` [Example X, 1-(3'-fluoro-2'-methoxy-2',3'-dideoxy-β-D-arabinofuranosyl)thymine], the “% Inhibition of HIV multiplication” value in data set [3] (10 μg/ml) is 83% and 79%. In data set [3], the inhibition at 0.1 µg/mL came to 58% and the inhibition at 10 µg/mL is 85%.
As for `O=c1[nH]c(=O)n([C@H]2C[C@H](F)[C@@H](CO)O2)cc1Br` [XIV, 5-bromo-1-(3'-fluoro-2',3'-dideoxy-β-D-ribofuranosyl)uracil], the “% Inhibition of HIV multiplication” value in data set [4] (0.1 μg/ml) is recorded as 50%.
As to `CCCc1cn([C@H]2C[C@H](F)[C@@H](CO)O2)c(=O)[nH]c1=O` [VSA 408, 1-(3'-F-2',3'-dideoxy-β-ribofuranosyl)-5-propyl-uracil], the IC50 in data set [1] (setting [6]) was determined as 1000 nM. Also, in data set [2], the inhibition at 48 h, 100 µM turned out to be 0%. Further, the inhibition at 48 h, 250 µM in data set [5] (250 μM) was determined as 15%.
`O=c1[nH]c(=O)n([C@H]2C[C@H](F)[C@@H](CO)O2)cc1Cl` [XVI]: the “% Inhibition of HIV multiplication” value in data set [4] (0.04 μg/ml) is listed as 50%.
